Tests used:
CD3+ T cells in tissues = experiment: CD3+ T cell frequency in intestine and LNs by immunofluorescence; type: in vivo, rhesus macaques (Macaca mulatta); conditions: for CD3+ T cells in superficial LNs, area fraction: average, pretreatment 30%, 7 mg/m^2
Procedure: CD3^+ T cell frequency in the intestine and LNs was assessed through immunofluorescence (IF), as described ([55]). Fixed, paraffin-embedded tissues from the three RMs were cut and placed onto microscope slides. The slides were treated three times with xylene (Thermo Fisher Scientific), run through an ethanol battery, washed with dH2O, and placed into 1× PBS (Thermo Fisher Scientific). Slides were microwaved with Antigen Unmasking Solution (Vector Labs, Burlingame, CA) for antigen retrieval. Once slides had cooled, they were washed three times in 1× PBS and the tissues were circled with Immedge Pen (Vector Labs) to create a hydrophobic barrier. Dako Serum-Free Protein Block (Agilent, Santa Clara, CA) was added to the tissues. The Dako Protein Block was dumped off and the slides incubated with mouse α-CD3 (Agilent). The primary antibody was dumped off and slides washed in 1× PBS as previously noted. The remaining steps were completed in the dark. The slides were incubated with the secondary antibody, goat α-mouse (Alexa Fluor 488) (Invitrogen) followed by a subsequent 1× PBS wash. The slides were incubated with DAPI (Millipore Sigma, Burlington, MA), and then dumped off and washed with 1× PBS, followed by dH2O, and dried. Coverslips were then mounted to the slides with fluorescent mounting media (Agilent). Slides were visualized and imaged with Zeiss Imager M1 microscope and Axiovision software [V4.8.2.0 (Carl Zeiss AG, Oberkochen, Germany)]. Image quantifications were performed using the FIJI distribution ([56]) of ImageJ 1.52c ([57]), where positive fluorescent signals were isolated by setting color thresholds and the percent positive area was calculated.

PBMCs = experiment: In vitro RMD impact on cell surface markers of PBMCs; type: cell-based, rhesus macaques; conditions: for CD3 expression (% of cells) on PBMCs: n = 3
Procedure: To assess the RMD impact on the expression of cellular and homing markers, fresh PBMCs collected from 3 SIV-naïve RMs were subjected to either no RMD treatment or escalating doses of RMD (2, 10, and 20 ng/ml). The PBMCs were incubated with RMD in RPMI1640 supplemented with 1% Penicillin/Streptomycin, 1% HEPES buffer, 1% L-glutamine, and 5% heat-inactivated bovine calf serum for 0, 1, 2, or 5 days. PBMCs were then stained with CD3-V500, CD4-Alexa Flour 700 (L200), CD8-PE-CF594, CCR4-PE-Cy7 (1G1), CCR5-APC (3AP), CCR7-PE (3D12), CCR9-FITC (112509) (R&D Systems, Minneapolis, MN, USA), β7-PE-Cy5 (FIB504), and LIVE/DEAD Fixable Blue Dead Cell Stain Kit (Thermo Fisher Scientific); all antibodies were from BD Biosciences unless otherwise noted. Stained PBMCs were acquired on a LSR-II and data were analyzed with FlowJo software (TreeStar).

HIV = conditions: cited from earlier work
Text: Because we measured the prodrug form of RMD, it is possible that the maintained concentrations are due to either greater distribution to the tissue compartments, reduced conversion of the RMD to the active, reduced form, trapping of RMD between the extracellular and interstitial spaces, or a combination of these. As ...

Cortisol ELISA in plasma = type: in vivo, rhesus macaques (Macaca mulatta); conditions: RMD-infused RMs vs saline controls (peak 6 h, decreasing from day 1); n = 3 per group
Text: Cortisol ELISA. To assess the levels of stress associated with the different animal procedures used, frozen plasma was thawed, and dilutions of either 1:16 to 1:50 were used to measure the circulating cortisol levels with a cortisol ELISA kit (ENZO, Farmingdale, NY, USA), as per manufacturer instructions. The results were read at 405 nm on a Ultrospec 2100 Pro (Amersham Biosciences, Little Chalfont, UK) and results interpolated by Prism 8.4.3 (GraphPad Software, Inc., San Diego, CA) using 4 parameter logistic curve fitting.

[1] = human, in vivo; cited from earlier work
[2] = test system: peripheral CD4+ and CD8+ T cells; experiment: Apoptosis and activation of peripheral T cells (whole blood flow cytometry); type: in vivo, rhesus macaques (Macaca mulatta); conditions: n = 3
Procedure: Whole blood was stained to monitor the impact of RMD on the immune cell populations. TruCount was used to determine absolute counts of CD3^+, CD4^+, CD8^+ T cells and CD20^+ B cells as described ([51]–[53]). Fifty microliters of whole blood were stained with antibodies against CD3-V450, CD4-APC, CD20-APC-H7, and CD45-PerCP in TruCount tubes (BD Biosciences, Franklin Lakes, NJ, USA) with a set number of fluorescent beads as internal standards. CD8^+ T cell counts were assessed through the ratio of CD8^+ to CD3^+ T cells. Whole blood was also stained with combinations of the following fluorescently labeled antibodies: CD3-V450 (SP34-2), CD4-APC (L200), CD8-PE-CF594 (RPA-T8), CD14-PE-Cy7 (M5E2), CD38-FITC (AT-1) (Stemcell, Vancouver, BC, CA), CD20-APC-H7 (2H7), CD69-APC-Cy7 (FN50), CD95-FITC (DX2), CCR5-PE (3A9), Annexin V-FITC, HLA-DR-PE-Cy7 (L243), NKG2A-PE (Z199) (Beckman Coulter, Pasadena, CA), Strepavidin-Alexa Fluor 750 (Life Technologies, Carlsbad, CA), Biotin-CCR7 (eBioscience, San Diego, CA), LIVE/DEAD Fixable Blue Dead Cell Stain Kit (Thermo Fisher Scientific); all antibodies were from BD Biosciences unless otherwise noted. For Ki-67-PE (B56) intracellular staining, cells were fixed and permeabilized prior to Ki-67 staining. Data were acquired with a LSR-II flow cytometer (BD Biosciences) or Fortessa flow cytometer (BD Biosciences) and analyzed with FlowJo software 10.7.0 (Treestar, Ashland, OR), as described ([51], [54]).

[3] = penetration into CSF; cited from earlier work
Procedure: The brain is also a key HIV reservoir ([71]–[73]). […] At 2 h postinfusion, the plasma concentration was 19.9 ng/ml (37.6nM). Assuming a 2% penetration, this would h ...

## C/C=C1\NC(=O)[C@H]2CSSCC/C=C/[C@H](CC(=O)N[C@H](C(C)C)C(=O)N2)OC(=O)[C@H](C(C)C)NC1=O [RMD, romidepsin]
CD3+ T cells in tissues; 6 h postinfusion
  CD3+ T cells in superficial LNs, area fraction: 40%
CD3+ T cells in tissues; 1 day postinfusion, three RMs, pretreatment 5.8%, not significant
  CD3+ T cells in intestine, area fraction: 7.6%
CD3+ T cells in tissues; 7 days postinfusion
  CD3+ T cells in superficial LNs, area fraction: 41%
CD3+ T cells in tissues; animal RM71, 1 day postinfusion, pretreatment 31%
  CD3+ T cells in mesenteric LNs, area fraction: 43%
CD3+ T cells in tissues; animals RM32 and RM33, 1 day postinfusion vs pretreatment, p > 0.05
  CD3+ T cells in mesenteric LNs, area fraction: virtually unchanged
PBMCs; 2 ng/ml RMD, day 2, baseline 50%, no RMD 66%
  CD3 expression (% of cells) on PBMCs: 48%
PBMCs; 2 ng/ml RMD, day 5, baseline 50%, no RMD 61%
  CD3 expression (% of cells) on PBMCs: 20%
PBMCs; 10 ng/ml RMD, day 2, baseline 50%, no RMD 66%
  CD3 expression (% of cells) on PBMCs: 30%
PBMCs; 10 ng/ml RMD, day 5, baseline 50%, no RMD 61%
  CD3 expression (% of cells) on PBMCs: 16%
PBMCs; 20 ng/ml RMD, day 2, baseline 50%, no RMD 66%
  CD3 expression (% of cells) on PBMCs: 32%
PBMCs; 20 ng/ml RMD, day 5, baseline 50%, no RMD 61%
  CD3 expression (% of cells) on PBMCs: 19%
PBMCs; day 1, all dosage treatments (2, 10, 20 ng/ml)
  CD3 expression (% of cells) on PBMCs: minimal changes
PBMCs; with increasing dosages of RMD (2, 10, 20 ng/ml), p < 0.05
  proportions of CD4− CD8− CD3+ T cells: increased proportions
HIV
  concentration found to readily reactivate HIV in vitro: 5 nM
Cortisol ELISA in plasma
  plasma cortisol levels after infusion: remained elevated through 2 dpi
[1]
  terminal elimination half-life in clinical studies: 6.6 to 19 h
  terminal elimination half-life reported in humans: ~ 3.5 h
[2]; 2 days postinfusion, baseline 2.1%, Annexin V and Live/Dead
  frequency of apoptotic CD8+ T cells: 4.6%
[2]; after RMD administration, baseline 3.7%, Annexin V and Live/Dead
  frequency of apoptotic CD4+ T cells: 1.8%
[2]; by 1 day postinfusion, not significant
  expression of T cell activation markers CD69 and Ki-67 on circulating CD4+ and CD8+ T cells: increased
[3]
  AUC of CSF/plasma: 2%

Source: publication PMC7759686, “Pharmacokinetics and Immunological Effects of Romidepsin in Rhesus Macaques” (Frontiers in Immunology, 2020)
